Consider six molecules from PMC7068720, “Rational Design of Mechanism-Based Inhibitors and Activity-Based Probes for the Identification of Retaining α-L-Arabinofuranosidases” (Journal of the American Chemical Society, 2020).

One may read the kinact/KI as the second-order rate constant of inactivation. One may read the Km as the concentration of substrate that gives half-maximal velocity. The kcat is the maximal rate divided by the concentration of active sites.

One series deals with T1, AkAbfB (GH54) (Aspergillus luchuensis, UniProt Q8NK89).
T1 construct: gene abfB; pPICZalpha, no purification tag, secreted from Pichia pastoris X-33; EndoH-deglycosylated for MS and crystallography
T1 sequence (Q8NK89 18-499): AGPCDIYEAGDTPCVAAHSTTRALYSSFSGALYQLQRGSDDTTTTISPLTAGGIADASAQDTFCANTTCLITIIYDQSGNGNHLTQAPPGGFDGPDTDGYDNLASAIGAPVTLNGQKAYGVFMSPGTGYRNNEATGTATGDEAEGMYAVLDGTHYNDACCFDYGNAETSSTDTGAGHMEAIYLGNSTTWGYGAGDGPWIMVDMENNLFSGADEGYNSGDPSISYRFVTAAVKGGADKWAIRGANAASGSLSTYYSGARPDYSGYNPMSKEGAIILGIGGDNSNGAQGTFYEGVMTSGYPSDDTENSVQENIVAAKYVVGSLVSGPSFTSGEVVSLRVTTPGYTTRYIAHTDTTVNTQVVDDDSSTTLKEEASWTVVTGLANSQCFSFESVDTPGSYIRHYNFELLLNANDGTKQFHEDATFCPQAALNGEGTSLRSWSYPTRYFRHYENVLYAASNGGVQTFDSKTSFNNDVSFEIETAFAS
Briefly: continuous fluorescence assay, irreversible inhibition kinetics. The series is classed as biochemical. The source says: continuous fluorescence assay, irreversible inhibition kinetics on AkAbfB (GH54)

The target of series [1] is T2, GsGH51 (Geobacillus stearothermophilus abfA) (Geobacillus stearothermophilus, UniProt Q9XBQ3).
T2 construct: E. coli BL21(DE3) Gold, pET28a(+), N-terminal TEV-cleavable 6xHis tag removed
Briefly: X-ray crystallography ([…] Å) and intact MS. The series is classed as binding. To be noted: covalent; nucleophile E294.

For the next series, the target named is T3, AnAbfA (GH51) (Aspergillus niger, UniProt A2Q7E0).
T3 construct: gene abfA; synthetic gene in pPICZalpha (vector fragment amplified from untagged AkAbfB plasmid), secreted from Pichia pastoris X-33
T3 sequence (A2Q7E0 26-628): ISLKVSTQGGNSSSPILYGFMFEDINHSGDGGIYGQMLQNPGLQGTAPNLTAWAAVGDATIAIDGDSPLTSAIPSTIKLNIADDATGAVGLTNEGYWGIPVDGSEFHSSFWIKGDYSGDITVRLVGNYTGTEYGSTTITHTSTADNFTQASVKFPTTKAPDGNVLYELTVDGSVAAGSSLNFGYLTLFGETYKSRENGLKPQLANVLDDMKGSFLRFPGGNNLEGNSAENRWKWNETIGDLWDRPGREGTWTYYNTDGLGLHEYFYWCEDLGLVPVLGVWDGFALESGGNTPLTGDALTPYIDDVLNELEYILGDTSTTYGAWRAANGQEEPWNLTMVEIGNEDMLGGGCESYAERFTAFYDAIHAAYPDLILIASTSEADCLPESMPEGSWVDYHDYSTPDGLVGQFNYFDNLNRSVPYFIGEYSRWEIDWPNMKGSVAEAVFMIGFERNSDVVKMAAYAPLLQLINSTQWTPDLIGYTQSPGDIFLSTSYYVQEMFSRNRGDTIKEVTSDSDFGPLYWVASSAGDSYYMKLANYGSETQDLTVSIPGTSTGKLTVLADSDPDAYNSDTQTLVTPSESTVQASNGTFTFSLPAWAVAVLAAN
Briefly: continuous fluorescence assay, irreversible inhibition kinetics. The series is classed as biochemical. The source says:
continuous fluorescence assay, irreversible inhibition kinetics on AnAbfA (GH51)

A further series deals with T4, AnAbfB (AbfB, GH54) (Aspergillus niger, UniProt A2R511).
T4 construct: native secreted glycoprotein in arabinan-grown secretome, ~65 kDa on gel (~60 kDa after PNGaseF)
T4 sequence (A2R511 19-499): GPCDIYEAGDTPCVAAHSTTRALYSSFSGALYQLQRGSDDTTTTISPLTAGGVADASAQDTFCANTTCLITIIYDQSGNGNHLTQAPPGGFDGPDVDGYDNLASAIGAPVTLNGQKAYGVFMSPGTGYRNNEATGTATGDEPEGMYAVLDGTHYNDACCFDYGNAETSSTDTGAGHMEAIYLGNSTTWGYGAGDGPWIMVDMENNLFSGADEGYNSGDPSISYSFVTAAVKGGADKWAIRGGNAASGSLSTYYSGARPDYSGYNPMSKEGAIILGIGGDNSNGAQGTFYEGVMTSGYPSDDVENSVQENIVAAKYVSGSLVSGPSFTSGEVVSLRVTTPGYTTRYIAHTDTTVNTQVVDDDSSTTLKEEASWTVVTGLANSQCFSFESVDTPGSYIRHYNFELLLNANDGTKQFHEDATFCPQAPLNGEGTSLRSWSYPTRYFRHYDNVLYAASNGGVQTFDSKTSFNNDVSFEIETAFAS
Put plainly: competition with ABP […] pull-down, LC-MS/MS. The series is classed as biochemical. The settings on record: covalent; 0.1 mM inhibitor 1 h, pH 6.5, 37 °C, then ABP 5.

The target of the next series is T5, AbfE (GH51) (Aspergillus niger, UniProt A2QT56).
T5 construct: gene An09g00880; native secreted protein in arabinan-grown secretome
T5 sequence (A2QT56 32-646): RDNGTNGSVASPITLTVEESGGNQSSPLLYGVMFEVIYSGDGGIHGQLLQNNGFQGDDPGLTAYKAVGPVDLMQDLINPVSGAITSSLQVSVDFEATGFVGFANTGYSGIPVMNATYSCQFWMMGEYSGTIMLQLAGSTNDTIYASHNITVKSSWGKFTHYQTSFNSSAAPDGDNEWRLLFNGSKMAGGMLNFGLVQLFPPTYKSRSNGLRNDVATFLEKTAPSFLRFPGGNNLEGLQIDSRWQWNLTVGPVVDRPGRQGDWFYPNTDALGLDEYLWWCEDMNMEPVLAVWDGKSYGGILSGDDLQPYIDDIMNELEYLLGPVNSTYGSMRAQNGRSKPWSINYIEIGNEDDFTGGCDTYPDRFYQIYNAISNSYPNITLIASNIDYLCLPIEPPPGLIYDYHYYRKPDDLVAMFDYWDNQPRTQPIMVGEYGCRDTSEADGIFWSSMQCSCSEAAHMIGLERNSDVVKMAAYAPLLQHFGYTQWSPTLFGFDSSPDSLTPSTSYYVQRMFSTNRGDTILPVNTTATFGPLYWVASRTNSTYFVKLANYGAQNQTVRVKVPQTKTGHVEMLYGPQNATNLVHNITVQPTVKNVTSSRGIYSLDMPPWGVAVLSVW
Put plainly: competition with ABP […] pull-down, LC-MS/MS. Type of series: biochemical. The settings on record: covalent; 0.1 mM inhibitor 1 h, pH 6.5, 37 °C, then ABP 5.

Substrate in series [2]: Cc1cc(=O)oc2cc(O[C@@H]3O[C@@H](CO)[C@H](O)[C@H]3O)ccc12
Put plainly: continuous fluorescence assay, Michaelis-Menten. The settings on record: 4-500 μM substrate, 50 mM sodium phosphate pH 7.0, 25 °C. Type of series: biochemical, Aspergillus luchuensis.

Substrate in series [3]: Cc1cc(=O)oc2cc(O[C@@H]3O[C@@H](CO)[C@H](O)[C@H]3O)ccc12
Put plainly: continuous fluorescence assay, Michaelis-Menten. The series is classed as biochemical, Aspergillus niger. To be noted: 4-500 μM substrate, 50 mM sodium phosphate pH 7.0, 25 °C.

The mark [4] stands for this setting: covalent; mechanism-based; 4MU-Araf 100 μM, 50 mM sodium phosphate pH 7.0, 25 °C.
Where [5] appears, read: read-out: KI; covalent; mechanism-based; 4MU-Araf 100 μM, 50 mM sodium phosphate pH 7.0, 25 °C.
Setting [6] is: 4MU-Araf 100 μM, 50 mM sodium phosphate pH 7.0, 25 °C; up to 0.25 mM inhibitor.
The mark [7] stands for this setting: covalent; mechanism-based; 4MU-Araf 100 μM, 50 mM sodium phosphate pH 7.0, 25 °C; read-out: KI.

Like-named read-outs stand apart in the source and are kept apart here.

T2 sequence (Q9XBQ3 whole entry): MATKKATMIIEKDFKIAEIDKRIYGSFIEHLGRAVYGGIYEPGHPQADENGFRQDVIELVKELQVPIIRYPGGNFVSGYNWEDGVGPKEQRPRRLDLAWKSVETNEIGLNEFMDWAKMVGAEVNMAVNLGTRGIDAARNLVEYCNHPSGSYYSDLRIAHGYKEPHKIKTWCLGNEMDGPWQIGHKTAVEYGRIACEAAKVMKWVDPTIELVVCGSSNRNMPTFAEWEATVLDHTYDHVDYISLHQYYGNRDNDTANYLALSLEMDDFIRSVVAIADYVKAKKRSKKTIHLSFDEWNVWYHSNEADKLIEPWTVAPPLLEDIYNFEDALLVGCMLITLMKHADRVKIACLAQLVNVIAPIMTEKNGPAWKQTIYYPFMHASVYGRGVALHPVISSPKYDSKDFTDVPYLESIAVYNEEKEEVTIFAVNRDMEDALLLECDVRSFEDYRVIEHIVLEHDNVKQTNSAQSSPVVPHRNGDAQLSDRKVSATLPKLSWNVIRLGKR

For `O=S1(=O)O[C@@H]2[C@@H](CO)[C@H](O)[C@@H](O)[C@@H]2O1` [compound 6, inhibitor 6], the “kinact/KI” value at AkAbfB (GH54) (setting [4]) worked out at 240 ± 30 M⁻¹ s⁻¹; on AnAbfA (GH51) (setting [4]), 160 ± 20 M⁻¹ s⁻¹. Also, in series [1], the “X-ray crystallography (1.40 Å) and intact MS” value is “full occupancy covalent complex between E294, the known catalytic nucleophile, and each inhibitor”.
For the molecule `NCCCCCCCCN1[C@@H]2[C@@H](CO)[C@H](O)[C@@H](O)[C@@H]21` (stereo partly shown) [compound 3, inhibitor 3], the results for the KI (inactivation) at AkAbfB (GH54) (setting [5]) and at AnAbfA (GH51) (setting [5]) were 320 ± 40 µM and 210 ± 30 µM, respectively.
As for `OC[C@H]1[C@H](O)[C@@H](O)[C@@H]2O[C@H]12` [compound 1], the “kinact/KI” value on AkAbfB (GH54) (setting [6]) and on AnAbfA (GH51) (setting [6]) was < 0.1 M⁻¹ s⁻¹ in each case.
`OC[C@H]1[C@H](O)[C@@H](O)[C@@H]2N[C@H]12` [compound 2, inhibitor 2]: the KI (inactivation) amounted to 320 ± 50 µM at AkAbfB (GH54) (setting [7]) and 140 ± 20 µM at AnAbfA (GH51) (setting [7]). The “competition with ABP 5 pull-down, LC-MS/MS” value is “significantly reduced signal for peptides from AbfA, AbfB, and AbfE” at AnAbfB (AbfB, GH54); “significantly reduced signal for peptides from AbfA, AbfB, and AbfE” on AbfE (GH51). For the same molecule, the “X-ray crystallography (1.40 Å) and intact MS” value in series [1] is “full occupancy covalent complex between E294, the known catalytic nucleophile, and each inhibitor”.

B1: AkAbfB (GH54) (Aspergillus luchuensis IFO 4308) (protein)
chain: T1 sequence (Q8NK89 18-499)
notes: pPICZalpha, no purification tag, secreted from Pichia pastoris X-33; EndoH-deglycosylated for MS and crystallography
As to B1, in series [2], the Km was found to be 390 ± 30 µM and the kcat came to 3.5 ± 0.167 s⁻¹.

B2: AnAbfA (GH51) (Aspergillus niger CBS 513.88) (protein)
chain: T3 sequence (A2Q7E0 26-628)
notes: synthetic gene in pPICZalpha (vector fragment amplified from untagged AkAbfB plasmid), secreted from Pichia pastoris X-33
On to B2, for which, in series [3], the Michaelis-Menten constant (Km) is 240 ± 20 µM and the kcat came to 2.17 ± 0.167 s⁻¹.
